From ChEMBL document CHEMBL1148230, “Synthesis, characterization and evaluation of pro-drugs of VLA-4 antagonists” (Bioorg Med Chem Lett, 2004)
Converted amounts (≈) assume the structure as drawn.

Columns and labels:
[1] = Permeability in Caco-2 assay at 10E-6; assay type: ADME; details: human, read-out: Activity
[2] = Stability in rat plasma was determined; assay type: ADME
[3] = Solubility in SIF buffer system; ND= not detectable; assay type: physicochemical; details: simulated gi fluid
[4] = Solubility in SGF buffer system; assay type: physicochemical
[5] = Log Doctanol value by HPLC peak area analysis of aqueous and octanol phases at pH 6.5; assay type: physicochemical; details: octanol/aqueous phase, read-out: LogD6.5
[6] = Log Doctanol value by HPLC peak area analysis of aqueous and octanol phases at pH 4.5; assay type: physicochemical; details: octanol/aqueous phase
[7] = Solubility in SIBLM buffer system; assay type: physicochemical
[8] = Solubility in SIF buffer system; assay type: physicochemical
[9] = Log Doctanol value by HPLC peak area analysis of aqueous and octanol phases at pH 4.5-6.5; assay type: physicochemical
[10] = Solubility in SGF buffer system; ND=not detectable; assay type: physicochemical; details: simulated gi fluid
[11] = tested on: HUVEC; test: Inhibitory activity against VLA-4 mediated adhesion to human vein endothelial cells; assay type: functional, cell-based
[12] = octanol/aqueous phase, read-out: logD

Row | Compound | Papp [1] [×10⁻⁶ cm/s] | half-life [2] [min] | solubility [3] | solubility [4] [µg/mL] | logD [5] | logD [6] | solubility [7] [µg/mL] | solubility [8] [µg/mL] | logD [9, 12] | logD ([9]; octanol/water) | solubility [10] | IC50 [11] [nM]
1 | CN(C)C(=O)Oc1ccc(C[C@H](NC(=O)[C@H]2N(S(=O)(=O)c3ccn(C)n3)CSC2(C)C)C(=O)OCOC(=O)C(C)(C)C)cc1 | 2.49 | 2.82 | Not detectable | 13 (≈ 19.9 µM) | 3.17 | 3.1 | 119 (≈ 182 µM) | – | – | – | – | –
2 | CC(C)OC(=O)[C@H](Cc1ccc(OC(=O)N(C)C)cc1)NC(=O)[C@H]1N(S(=O)(=O)c2ccn(C)n2)CSC1(C)C | 6.83 | 10.9 | – | 94.9 (≈ 163 µM) | 2.47 | 2.45 | 158 (≈ 272 µM) | 45.5 (≈ 78.2 µM) | – | – | – | –
3 | CCOC(=O)[C@H](Cc1ccc(OC(=O)N(C)C)cc1)NC(=O)[C@H]1N(S(=O)(=O)c2ccn(C)n2)CSC1(C)C | 4.24 | 8.08 | – | 629 (≈ 1110 µM) | 2 | 2.27 | 1180 (≈ 2080 µM) | 341 (≈ 601 µM) | – | – | – | –
4 | COCCOCCOC(=O)[C@H](Cc1ccc(OC(=O)N(C)C)cc1)NC(=O)[C@H]1N(S(=O)(=O)c2ccn(C)n2)CSC1(C)C | 2.03 | 13.1 | – | 2830 (≈ 4410 µM) | 1.42 | – | 4650 (≈ 7250 µM) | 2400 (≈ 3740 µM) | 1.41 | – | – | –
5 | CN(C)C(=O)Oc1ccc(C[C@H](NC(=O)[C@H]2N(S(=O)(=O)c3ccn(C)n3)CSC2(C)C)C(=O)OCC(C)(C)C)cc1 | 4.52 | 53.4 | Not detectable | 0.334 (≈ 0.548 µM) | – | – | 6.97 (≈ 11.4 µM) | – | 3.43 | 3.42 | – | –
6 | CN(C)C(=O)Oc1ccc(C[C@H](NC(=O)[C@H]2N(S(=O)(=O)c3ccn(C)n3)CSC2(C)C)C(=O)OCCOc2ccccc2)cc1 | 7.58 | 1.6 | – | – | 3.34 | 3.21 | 24 (≈ 36.4 µM) | 0.506 (≈ 0.767 µM) | – | – | Not detectable | –
7 | CN(C)C(=O)Oc1ccc(C[C@H](NC(=O)[C@H]2N(S(=O)(=O)c3ccn(C)n3)CSC2(C)C)C(=O)O)cc1 | > 0.07 | – | – | 3300 (≈ 6120 µM) | – | – | 20000 (≈ 37100 µM) | > 20000 | – | – | – | 6
